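Each compound was tested at five concentrations against cells in 96-well plates for 48 hours. TGI marks complete inhibition of growth.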
How the values were obtained:
Assay in all cases: DTP human tumour cell line panel, 48 h
[1] = test system: 786-0 renal
[2] = test system: A498 renal
[3] = test system: A549 NSCLC
[4] = test system: ACHN renal
[5] = test system: CAKI-1 renal
[6] = test system: COLO 205 colon
[7] = test system: DLD-1 colon
[8] = test system: DMS 114 small cell lung
[9] = test system: DMS 273 small cell lung
[10] = test system: EKVX NSCLC
[11] = test system: HCC-2998 colon
[12] = test system: HCT-116 colon
[13] = test system: HCT-15 colon
[14] = test system: HL-60(TB) leukemia
[15] = test system: HOP-18 NSCLC
[16] = test system: HOP-62 NSCLC
[17] = test system: HOP-92 NSCLC
[18] = test system: HT29 colon
[19] = test system: IGROV1 ovarian
[20] = test system: K-562 leukemia
[21] = test system: KM12 colon
[22] = test system: KM20L2 colon
[23] = test system: LOX IMVI melanoma
[24] = test system: LXFL 529 NSCLC
[25] = test system: M14 melanoma
[26] = test system: M19-MEL melanoma
[27] = test system: MALME-3M melanoma
[28] = test system: MOLT-4 leukemia
[29] = test system: NCI-H226 lung
[30] = test system: NCI-H23 lung
[31] = test system: NCI-H460 lung
[32] = test system: NCI-H522 lung
[33] = test system: OVCAR-3 ovarian
[34] = test system: OVCAR-4 ovarian
[35] = test system: OVCAR-5 ovarian
[36] = test system: OVCAR-8 ovarian
[37] = test system: RPMI-8226 leukemia
[38] = test system: RXF-631 renal
[39] = test system: SF-268 CNS
[40] = test system: SF-295 CNS
[41] = test system: SF-539 CNS
[42] = test system: SK-MEL-2 melanoma
[43] = test system: SK-MEL-28 melanoma
[44] = test system: SK-MEL-5 melanoma
[45] = test system: SK-OV-3 ovarian
[46] = test system: SN12C renal
[47] = test system: SNB-19 CNS
[48] = test system: SNB-75 CNS
[49] = test system: SNB-78 CNS
[50] = test system: SW-620 colon
[51] = test system: TK-10 renal
[52] = test system: U251 CNS
[53] = test system: UACC-257 melanoma
[54] = test system: UACC-62 melanoma
[55] = test system: UO-31 renal
[56] = test system: CCRF-CEM leukemia
[57] = test system: SR leukemia
[58] = test system: RXF 393 renal
[59] = test system: XF 498 CNS

In the case of `Cc1cccc(C)c1N1C(=O)C(=O)C(c2nc3ccccc3s2)/C(=N\N)C1=O` (configuration not stated), the TGI [1] is reported as > 100 µM, the TGI [2] is reported as > 100 µM and the TGI [3] is reported as > 100 µM. The TGI [4] was > 100 µM, the TGI [5] was > 100 µM and the TGI [6] was > 100 µM. For the same compound, the TGI [7] was > 100 µM, the TGI [8] was > 100 µM and the TGI [9] was > 100 µM. For the same compound, the TGI [10] was > 100 µM, the TGI [11] was > 100 µM and the TGI [12] was > 100 µM. For the same compound, the TGI [13] was > 100 µM, the TGI [14] was > 100 µM and the TGI [15] was > 100 µM. The TGI [16] was > 100 µM, the TGI [17] was > 100 µM and the TGI [18] was > 100 µM. The TGI [19] was > 100 µM, the TGI [20] was > 100 µM and the TGI [21] was > 100 µM. The TGI [22] was > 100 µM, the TGI [23] was > 100 µM and the TGI [24] was > 100 µM. The TGI [25] was > 100 µM, the TGI [26] was > 100 µM and the TGI [27] was > 100 µM. The TGI [28] was > 100 µM, the TGI [29] was > 100 µM and the TGI [30] was > 100 µM. The TGI [31] was > 100 µM, the TGI [32] was > 100 µM and the TGI [33] was > 100 µM. The TGI [34] was > 100 µM, the TGI [35] was > 100 µM and the TGI [36] was > 100 µM. The TGI [37] was > 100 µM, the TGI [38] was > 100 µM and the TGI [39] was > 100 µM. For the same compound, the TGI [40] was > 100 µM, the TGI [41] was > 100 µM and the TGI [42] was > 100 µM. The TGI [43] was > 100 µM, the TGI [44] was > 100 µM and the TGI [45] was > 100 µM. For the same compound, the TGI [46] was > 100 µM, the TGI [47] was > 100 µM and the TGI [48] was > 100 µM. For the same compound, the TGI [49] was > 100 µM, the TGI [50] was > 100 µM and the TGI [51] was > 100 µM. The TGI [52] was > 100 µM, the TGI [53] was > 100 µM and the TGI [54] was > 100 µM. The TGI [55] was > 100 µM.

For `COC1(OC)C2(Cl)C(Cl)=C(Cl)C1(Cl)C1C2C2CC1(C(=O)O)c1ccccc12` (configuration not stated), the TGI [1] was 31.6 µM, the TGI [2] was > 100 µM and the TGI [3] was > 100 µM. The TGI [4] was > 100 µM, the TGI [5] was 83.1 µM and the TGI [56] was 27 µM. The TGI [6] was 51.1 µM, the TGI [7] was 35.6 µM and the TGI [8] was 39.9 µM. It also gave a TGI [9] of 41.2 µM, a TGI [11] of 50.7 µM and a TGI [12] of 33.8 µM. It also gave a TGI [13] of 62.3 µM, a TGI [14] of 43.1 µM and a TGI [15] of 93.9 µM. It also gave a TGI [16] of 62.8 µM, a TGI [17] of 93.4 µM and a TGI [18] of 76.3 µM. It also gave a TGI [19] of 69.5 µM, a TGI [20] of 43.2 µM and a TGI [22] of 62.8 µM. The TGI [23] was 32 µM, the TGI [24] was 28 µM and the TGI [25] was 32 µM. For the same compound, the TGI [26] was 38.3 µM, the TGI [27] was 32.1 µM and the TGI [28] was 43.3 µM. For the same compound, the TGI [29] was 52.5 µM, the TGI [30] was 28.4 µM and the TGI [31] was 47.8 µM. For the same compound, the TGI [33] was 33.4 µM, the TGI [34] was 34.6 µM and the TGI [36] was 88.3 µM. For the same compound, the TGI [37] was 54.5 µM, the TGI [38] was 42.8 µM and the TGI [39] was 55.8 µM. It also gave a TGI [40] of 56.8 µM, a TGI [43] of 38.9 µM and a TGI [44] of 30.5 µM. For the same compound, the TGI [45] was 91.3 µM, the TGI [46] was 40.9 µM and the TGI [47] was > 100 µM. For the same compound, the TGI [57] was 42.2 µM, the TGI [50] was 54.3 µM and the TGI [51] was 70 µM. The TGI [52] was 35.5 µM, the TGI [53] was 47.4 µM and the TGI [54] was 34.8 µM. For the same compound, the TGI [55] was 44.7 µM.

In the case of `O=C1C2C3CC(C4C5C=CC(C5)C34)C2C2C3CC(C12)C1C2C=CC(C2)C31` (configuration not stated), the TGI [1] is reported as > 100 µM, the TGI [2] is reported as > 100 µM and the TGI [3] is reported as > 100 µM. For the same compound, the TGI [4] was > 100 µM, the TGI [5] was > 100 µM and the TGI [56] was > 100 µM. For the same compound, the TGI [6] was > 100 µM, the TGI [7] was > 100 µM and the TGI [8] was > 100 µM. For the same compound, the TGI [9] was > 100 µM, the TGI [10] was > 100 µM and the TGI [11] was > 100 µM. For the same compound, the TGI [12] was > 100 µM, the TGI [13] was > 100 µM and the TGI [14] was > 100 µM. For the same compound, the TGI [15] was > 100 µM, the TGI [16] was > 100 µM and the TGI [17] was > 100 µM. For the same compound, the TGI [18] was > 100 µM, the TGI [19] was > 100 µM and the TGI [20] was > 100 µM. The TGI [21] was > 100 µM, the TGI [22] was > 100 µM and the TGI [23] was > 100 µM. The TGI [24] was > 100 µM, the TGI [25] was > 100 µM and the TGI [26] was > 100 µM. For the same compound, the TGI [27] was > 100 µM, the TGI [28] was > 100 µM and the TGI [29] was > 100 µM. The TGI [30] was > 100 µM, the TGI [31] was > 100 µM and the TGI [32] was > 100 µM. The TGI [33] was > 100 µM, the TGI [34] was > 100 µM and the TGI [35] was > 100 µM. The TGI [36] was > 100 µM, the TGI [58] was > 100 µM and the TGI [38] was > 100 µM. For the same compound, the TGI [39] was > 100 µM, the TGI [40] was > 100 µM and the TGI [41] was > 100 µM. The TGI [42] was > 100 µM, the TGI [43] was > 100 µM and the TGI [44] was > 100 µM. The TGI [45] was > 100 µM, the TGI [46] was > 100 µM and the TGI [47] was > 100 µM. The TGI [48] was > 100 µM, the TGI [49] was > 100 µM and the TGI [57] was > 100 µM. For the same compound, the TGI [50] was 49.5 µM, the TGI [51] was > 100 µM and the TGI [52] was > 100 µM. The TGI [53] was > 100 µM, the TGI [54] was > 100 µM and the TGI [55] was > 100 µM. For the same compound, the TGI [59] was > 100 µM.

`O=C(/C=C/c1cccc([N+](=O)[O-])c1)c1ccc([N+](=O)[O-])cc1` was tested, and the TGI [1] was > 100 µM, the TGI [2] was > 100 µM and the TGI [3] was > 100 µM. For the same compound, the TGI [4] was > 100 µM, the TGI [5] was > 100 µM and the TGI [56] was > 100 µM. The TGI [6] was > 100 µM, the TGI [7] was > 100 µM and the TGI [9] was > 100 µM. For the same compound, the TGI [10] was > 100 µM, the TGI [11] was > 100 µM and the TGI [12] was > 100 µM. For the same compound, the TGI [13] was > 100 µM, the TGI [14] was > 100 µM and the TGI [16] was > 100 µM. The TGI [18] was > 100 µM, the TGI [19] was > 100 µM and the TGI [20] was > 100 µM. The TGI [21] was > 100 µM, the TGI [22] was > 100 µM and the TGI [23] was > 100 µM. The TGI [24] was > 100 µM, the TGI [25] was > 100 µM and the TGI [26] was > 100 µM. The TGI [27] was > 100 µM, the TGI [28] was > 100 µM and the TGI [29] was > 100 µM. For the same compound, the TGI [30] was > 100 µM, the TGI [31] was > 100 µM and the TGI [32] was > 100 µM. For the same compound, the TGI [33] was > 100 µM, the TGI [34] was > 100 µM and the TGI [35] was > 100 µM. The TGI [36] was > 100 µM, the TGI [58] was > 100 µM and the TGI [38] was > 100 µM. The TGI [39] was > 100 µM, the TGI [40] was > 100 µM and the TGI [41] was > 100 µM. The TGI [42] was > 100 µM, the TGI [43] was > 100 µM and the TGI [44] was > 100 µM. The TGI [45] was > 100 µM, the TGI [46] was > 100 µM and the TGI [47] was > 100 µM. The TGI [48] was > 100 µM, the TGI [49] was > 100 µM and the TGI [57] was > 100 µM. The TGI [50] was > 100 µM, the TGI [51] was > 100 µM and the TGI [52] was > 100 µM. The TGI [53] was > 100 µM, the TGI [54] was > 100 µM and the TGI [55] was > 100 µM. The TGI [59] was > 100 µM.
